Data reported in PMC6364417, “Kinase inhibitor library screening identifies synergistic drug combinations effective in sensitive and resistant melanoma cells” (Journal of Experimental & Clinical Cancer Research : CR, 2019).

Columns and labels:
Assay in all cases: Kinase inhibitor library screening, PrestoBlue cell viability, 1 or 10 μM, 72 h
IGR37 cells (parental) = settings: IGR37 Parental, 72 h
[1] = tested on: A375-GP cells (Dabrafenib-resistant); settings: A375 GP, 72 h
[2] = tested on: A375-XP cells (Vemurafenib-resistant); settings: A375 XP, 72 h
[3] = tested on: IGR37-XP cells (Vemurafenib-resistant); settings: IGR37 XP, 72 h
[4] = tested on: IGR37-GP cells (Dabrafenib-resistant); settings: IGR37 GP, 72 h
[5] = tested on: 501Mel-GP cells (Dabrafenib-resistant); settings: 501Mel GP, 72 h
501Mel cells (parental) = settings: 501Mel Parental, 72 h
How it was run: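 Kinase inhibitors added at two fixed concentrations; 72 h exposure; PrestoBlue readout; % viability vs untreated; n ≥ 2 per line.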

[6] = tested on: 501Mel-XP cells (Vemurafenib-resistant); settings: 501Mel XP, 72 h
A375 cells (parental) = settings: A375 Parental, 72 h

Row | SMILES | cell viability (kinase inhibitor library screening) (IGR37 cells (parental); 1μΜ) | cell viability (kinase inhibitor library screening) (IGR37 cells (parental); 10μΜ) | cell viability (kinase inhibitor library screening) ([1]; 10μΜ) | cell viability (kinase inhibitor library screening) ([2]; 10μΜ) | cell viability (kinase inhibitor library screening) ([3]; 1μΜ) | cell viability (kinase inhibitor library screening) ([3]; 10μΜ) | cell viability (kinase inhibitor library screening) ([4]; 1μΜ) | cell viability (kinase inhibitor library screening) ([4]; 10μΜ) | cell viability (kinase inhibitor library screening) ([5]; 10μΜ) | cell viability (kinase inhibitor library screening) (501Mel cells (parental); 1μΜ) | cell viability (kinase inhibitor library screening) (501Mel cells (parental); 10μΜ) | cell viability (kinase inhibitor library screening) ([6]; 1μΜ) | cell viability (kinase inhibitor library screening) ([6]; 10μΜ) | cell viability (kinase inhibitor library screening) (A375 cells (parental); 10μΜ) | cell viability (kinase inhibitor library screening) (A375 cells (parental); 1μΜ) | Cell viability in kinase inhibitor library screening, IGR37 Parental, 10μΜ (IGR37 cells (parental); 10μΜ, in %) | Cell viability in kinase inhibitor library screening, A375 GP, 1μΜ ([1]; 1μΜ) | Cell viability in kinase inhibitor library screening, A375 GP, 10μΜ ([1]; 10μΜ) | Cell viability in kinase inhibitor library screening, A375 XP, 1μΜ ([2]; 1μΜ) | Cell viability in kinase inhibitor library screening, A375 XP, 10μΜ ([2]; 10μΜ) | further results
1 | CCOc1ccn(-c2ccc(F)cc2)c(=O)c1C(=O)Nc1ccc(Oc2ccnc(N)c2Cl)c(F)c1 [BMS 777607] | 97.6% | 81.6% | 45.4% | 66.5% | 91.2% | 46.6% | 87.2% | 82.2% | 53.2% | 88.2% | 68.4% | 72.2% | 37.4% | 42.4% | 99.9% | – | – | – | – | – | –
2 | Cc1c(CN2CCN(C(=O)[C@H](C)O)CC2)sc2c(N3CCOCC3)nc(-c3cnc(N)nc3)nc12 [GDC-0980 (RG7422)] | – | – | – | – | – | – | – | – | – | – | – | – | – | – | – | 2.0 | 33.1 | 4.0 | 31.2 | 3.3 | Cell viability in kinase inhibitor library screening, IGR37 Parental, 1μΜ (IGR37 cells (parental); 1μΜ, in %): 35.3; Cell viability in kinase inhibitor library screening, IGR37 XP, 10μΜ ([3]; 10μΜ): 1.5%; Cell viability in kinase inhibitor library screening, IGR37 XP, 1μΜ ([3]; 1μΜ, in %): 21.6; Cell viability in kinase inhibitor library screening, IGR37 GP, 10μΜ ([4]; 10μΜ): 2.9%; Cell viability in kinase inhibitor library screening, IGR37 GP, 1μΜ ([4]; 1μΜ, in %): 58.6; Cell viability in kinase inhibitor library screening, 501Mel GP, 1μΜ ([5]; 1μΜ, in %): 21.4; Cell viability in kinase inhibitor library screening, 501Mel GP, 10μΜ ([5]; 10μΜ, in %): 5.1; Cell viability in kinase inhibitor library screening, 501Mel Parental, 1μΜ (501Mel cells (parental); 1μΜ, in %): 19.3; Cell viability in kinase inhibitor library screening, 501Mel Parental, 10μΜ (501Mel cells (parental); 10μΜ, in %): 1.0; Cell viability in kinase inhibitor library screening, 501Mel XP, 1μΜ ([6]; 1μΜ, in %): 15.9; Cell viability in kinase inhibitor library screening, 501Mel XP, 10μΜ ([6]; 10μΜ, in %): 0.8; Cell viability in kinase inhibitor library screening, A375 Parental, 10μΜ (A375 cells (parental); 10μΜ): 2.2; Cell viability in kinase inhibitor library screening, A375 Parental, 1μΜ (A375 cells (parental); 1μΜ): 22.3
3 | CCc1cc2c(cc1N1CCC(N3CCOCC3)CC1)C(C)(C)c1[nH]c3cc(C#N)ccc3c1C2=O [CH5424802] | 103.9% | 96.2% | 71.2% | 75.8% | 106.4% | 5.0% | 105.2% | 10.4% | 72.7% | 109.6% | 80.1% | 99.2% | 32.3% | 64.9% | 106.9% | – | – | – | – | – | cell viability (kinase inhibitor library screening) ([2]; 1μΜ): 105.6%; cell viability (kinase inhibitor library screening) ([5]; 1μΜ): 104.8%
4 | CCOc1cc2ncc(C#N)c(Nc3ccc(F)c(Cl)c3)c2cc1NC(=O)/C=C/CN(C)C [Pelitinib (EKB-569)] | – | – | – | – | – | – | – | – | – | – | – | – | – | – | – | – | – | – | – | – | cell viability, IGR37 Parental, 1μΜ (IGR37 cells (parental); 1μΜ, in %): 99.8; cell viability, IGR37 Parental, 10μΜ (IGR37 cells (parental); 10μΜ, in %): 97.0; cell viability, A375 GP, 1μΜ ([1]; 1μΜ, in %): 98.8; cell viability, A375 GP, 10μΜ ([1]; 10μΜ, in %): 88.7; cell viability, A375 XP, 1μΜ ([2]; 1μΜ, in %): 104.6; cell viability, A375 XP, 10μΜ ([2]; 10μΜ, in %): 96.9; cell viability, IGR37 XP, 10μΜ ([3]; 10μΜ): 77.5%; cell viability, IGR37 XP, 1μΜ ([3]; 1μΜ, in %): 97.8; cell viability, IGR37 GP, 10μΜ ([4]; 10μΜ): 92.3%; cell viability, IGR37 GP, 1μΜ ([4]; 1μΜ, in %): 97.5; cell viability, 501Mel GP, 1μΜ ([5]; 1μΜ, in %): 102.6; cell viability, 501Mel GP, 10μΜ ([5]; 10μΜ, in %): 92.4; cell viability, 501Mel Parental, 1μΜ (501Mel cells (parental); 1μΜ, in %): 102.9; cell viability, 501Mel Parental, 10μΜ (501Mel cells (parental); 10μΜ, in %): 89.9; cell viability, 501Mel XP, 10μΜ ([6]; 10μΜ, in %): 91.9; cell viability, A375 Parental, 1μΜ (A375 cells (parental); 1μΜ, in %): 103.3; cell viability, A375 Parental, 10μΜ (A375 cells (parental); 10μΜ, in %): 79.2
5 | CCn1cc(-c2ccnc3[nH]c(-c4cccc(CN(C)C)c4)cc23)c(-c2ccc(NC(=O)N(C)C)cc2)n1 [GSK1070916] | 94.1% | 85.3% | 34.9% | 37.9% | 88.9% | 7.5% | 98.0% | 46.1% | 50.8% | 94.0% | 36.8% | 90.5% | 18.1% | 36.0% | 53.8% | – | – | – | – | – | cell viability (kinase inhibitor library screening) ([1]; 1μΜ): 47.6%; cell viability (kinase inhibitor library screening) ([2]; 1μΜ): 57.6%
6 | COc1ccc(Cl)c(Nc2nc3ccccc3nc2NS(=O)(=O)c2cccc(NC(=O)C(C)(C)N)c2)c1 [XL147] | – | – | – | – | – | – | – | – | – | – | – | – | – | – | – | 90.5 | 91.5 | 84.7 | 100.4 | 100.4 | Cell viability in kinase inhibitor library screening, IGR37 XP, 10μΜ ([3]; 10μΜ): 62.4%; Cell viability in kinase inhibitor library screening, IGR37 XP, 1μΜ ([3]; 1μΜ, in %): 98.4; Cell viability in kinase inhibitor library screening, IGR37 GP, 10μΜ ([4]; 10μΜ): 88.3%; Cell viability in kinase inhibitor library screening, IGR37 GP, 1μΜ ([4]; 1μΜ, in %): 103.8; Cell viability in kinase inhibitor library screening, 501Mel GP, 10μΜ ([5]; 10μΜ, in %): 87.3; Cell viability in kinase inhibitor library screening, 501Mel Parental, 1μΜ (501Mel cells (parental); 1μΜ, in %): 95.0; Cell viability in kinase inhibitor library screening, 501Mel Parental, 10μΜ (501Mel cells (parental); 10μΜ, in %): 91.9; Cell viability in kinase inhibitor library screening, 501Mel XP, 1μΜ ([6]; 1μΜ, in %): 93.7; Cell viability in kinase inhibitor library screening, 501Mel XP, 10μΜ ([6]; 10μΜ, in %): 83.3; Cell viability in kinase inhibitor library screening, A375 Parental, 10μΜ (A375 cells (parental); 10μΜ): 88.5; Cell viability in kinase inhibitor library screening, A375 Parental, 1μΜ (A375 cells (parental); 1μΜ): 99.8
7 | O=c1cc(N2CCOCC2)oc2c(-c3ccccc3)cccc12 [LY294002] | – | – | – | – | – | – | – | – | – | – | – | – | – | – | – | 84.5 | 104.5 | 79.2 | 104.6 | 90.9 | Cell viability in kinase inhibitor library screening, IGR37 Parental, 1μΜ (IGR37 cells (parental); 1μΜ, in %): 106.7; Cell viability in kinase inhibitor library screening, IGR37 XP, 10μΜ ([3]; 10μΜ): 46.1%; Cell viability in kinase inhibitor library screening, IGR37 XP, 1μΜ ([3]; 1μΜ, in %): 100.0; Cell viability in kinase inhibitor library screening, IGR37 GP, 10μΜ ([4]; 10μΜ): 72.8%; Cell viability in kinase inhibitor library screening, IGR37 GP, 1μΜ ([4]; 1μΜ, in %): 100.0; Cell viability in kinase inhibitor library screening, 501Mel GP, 1μΜ ([5]; 1μΜ, in %): 104.8; Cell viability in kinase inhibitor library screening, 501Mel GP, 10μΜ ([5]; 10μΜ, in %): 77.9; Cell viability in kinase inhibitor library screening, 501Mel Parental, 10μΜ (501Mel cells (parental); 10μΜ, in %): 86.8; Cell viability in kinase inhibitor library screening, 501Mel XP, 1μΜ ([6]; 1μΜ, in %): 91.4; Cell viability in kinase inhibitor library screening, 501Mel XP, 10μΜ ([6]; 10μΜ, in %): 68.2; Cell viability in kinase inhibitor library screening, A375 Parental, 10μΜ (A375 cells (parental); 10μΜ): 80.4; Cell viability in kinase inhibitor library screening, A375 Parental, 1μΜ (A375 cells (parental); 1μΜ): 105.7
